ChEMBL document CHEMBL1201862, “PubChem BioAssay data set” (2004)
The source made the active and inactive calls.

How the values were obtained:
[1] = test system: H4; experiment: Luminescence Cell-Based Dose Response HTS to Identify Activators of 5'UTR Stem-Loop Driven Prion Protein mRNA Translation in H4 Neuroglioblastoma Cells. [Related pubchem assays: 1829 (Project Summary), 1814 (Primary HTS)]; assay type: functional; conditions: Homo sapiens
[2] = Trypanosoma cruzi growth suppression in host cells – NIH3T3 host cells, beta-gal luminescence, confirmation (AID 2044); assay type: functional, cell-based;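 note: intracellular parasites grown in NIH/3T3 mouse fibroblasts as host cells; luminescent beta-galactosidase reporter signal from transgenic T. cruzi replicating inside host cells; inhibitors lower the luminescence signal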
[3] = NIH3T3 cell viability loss – ATP luminescence, mouse fibroblasts, counter-screen, dose response (AID 2010); assay type: functional, cell-based;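 note: cells exposed to compound for about 90 hours before reading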
[4] = biological target: Cytochrome P450 2C19 (Homo sapiens, UniProt P33261); experiment: Cytochrome panel assay with activity outcomes. Panel member name: p450-cyp2c19 Compounds with AC50 equal or less than 10 uM are considered active; assay type: functional
Chain of Cytochrome P450 2C19 (P33261 whole entry): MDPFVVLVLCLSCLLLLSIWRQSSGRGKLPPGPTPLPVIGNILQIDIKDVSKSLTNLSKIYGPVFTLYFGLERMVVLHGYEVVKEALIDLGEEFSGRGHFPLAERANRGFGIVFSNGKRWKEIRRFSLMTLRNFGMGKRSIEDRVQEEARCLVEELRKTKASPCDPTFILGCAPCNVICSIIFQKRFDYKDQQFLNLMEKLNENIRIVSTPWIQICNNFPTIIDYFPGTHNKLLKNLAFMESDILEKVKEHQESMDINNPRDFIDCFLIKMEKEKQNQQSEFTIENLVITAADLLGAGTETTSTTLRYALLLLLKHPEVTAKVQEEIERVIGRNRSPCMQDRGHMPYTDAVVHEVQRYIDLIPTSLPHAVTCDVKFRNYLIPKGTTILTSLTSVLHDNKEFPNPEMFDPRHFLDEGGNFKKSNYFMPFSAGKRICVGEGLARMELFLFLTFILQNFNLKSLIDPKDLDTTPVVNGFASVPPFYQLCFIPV

[5] = biological target: Cytochrome P450 2C9 (Homo sapiens, UniProt P11712)
Chain of Cytochrome P450 2C9 (P11712 whole entry): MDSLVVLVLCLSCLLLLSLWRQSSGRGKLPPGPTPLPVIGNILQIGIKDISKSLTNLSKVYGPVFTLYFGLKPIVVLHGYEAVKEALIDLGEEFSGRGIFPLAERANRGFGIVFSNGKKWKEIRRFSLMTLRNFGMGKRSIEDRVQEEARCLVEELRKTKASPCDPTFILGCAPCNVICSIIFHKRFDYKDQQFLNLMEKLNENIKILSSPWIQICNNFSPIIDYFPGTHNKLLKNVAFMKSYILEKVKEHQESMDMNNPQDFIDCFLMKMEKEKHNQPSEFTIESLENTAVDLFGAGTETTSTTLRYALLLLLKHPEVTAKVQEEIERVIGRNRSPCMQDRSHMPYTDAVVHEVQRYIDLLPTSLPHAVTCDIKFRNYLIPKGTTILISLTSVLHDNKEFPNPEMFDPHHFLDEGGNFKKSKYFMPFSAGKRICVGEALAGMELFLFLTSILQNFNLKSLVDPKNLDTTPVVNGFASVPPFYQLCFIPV

Compound	EC50 [2]	EC50 [3]	also measured
Cc1ccc(-n2c(C)cc(C(=O)COC(=O)c3cccnc3O)c2C)cc1			EC50 [1]: > 120 µM (not active)
Cc1ccsc1C(=O)C1CCCN(Cc2cnc(N3CCOCC3)s2)C1 (configuration not stated)	0.146 µM (active)	> 60 µM (not active)	
CN[C@@H](c1ccncc1)[C@@H](NC)c1ccncc1			AC50 ([4]; read-out: AC50): 3.16 µM (inconclusive)
c1ccc(Cn2c3ccccc3c3nnc(SCCN4CCCCC4)nc32)cc1	0.489 µM (active)	> 60 µM (not active)	
CC1(C)C([N+](=O)[O-])C(c2ccc(Cl)cc2)NC(c2ccc(Cl)cc2)C1[N+](=O)[O-] (configuration not stated)	2 µM (active)	> 60 µM (inconclusive)	
COc1ccc(Cc2nc3cc(S(=O)(=O)N4CCOCC4)ccc3[nH]2)cc1OC			AC50 ([4]; read-out: AC50): 25.1 µM (inconclusive)
Cn1c(-c2nnn(-c3ccc(F)cc3)n2)cc2ccccc21			EC50 [1]: 36.6 µM (active)
CCOc1ccc(-n2c(SCc3nc(-c4ccc(C)cc4)no3)nnc2-c2ccncc2)cc1	1.31 µM (active)	6.76 µM (active)	
COc1ccc(Cc2noc(CN3CCCN(Cc4ccc(F)cc4)CC3)n2)cc1OC	0.248 µM (active)	> 60 µM (not active)	
N=C(NC(=O)c1ccccc1F)Nc1nc2ccccc2o1			AC50 ([4]; read-out: AC50): 22.4 µM (inconclusive)
Cc1ccc(S(=O)(=O)c2nnn3c2nc(NC2CCN(Cc4ccccc4)CC2)c2ccccc23)cc1C	1.24 µM (active)	> 30 µM (not active)	
COc1ccccc1CN1CCN(Cc2nc(-c3cccs3)no2)CC1	0.841 µM (active)	> 60 µM (not active)	
Nc1c(C(=O)Nc2ccccc2)c2nc3ccccc3nc2n1-c1ccc(O)cc1	2.07 µM (active)	15.9 µM (active)	
Cn1c(=O)c2c3c(sc2n2cnnc12)CCC3			AC50 [4]: inconclusive
COc1ccc(C(CC(=O)Nc2cc(OC)cc(OC)c2)n2cccc2)cc1 (configuration not stated)	2.45 µM (active)	> 60 µM (not active)	
O=C(CSc1nc(C2CC2)nc2ccccc12)N1c2ccccc2Sc2ccccc21	4.43 µM (active)	> 60 µM (not active)	

Compound	EC50 [2]	EC50 [3]	also measured
Cc1cccc(N/C=C(\[N+](=O)[O-])S(=O)(=O)c2ccccc2)c1C	> 60 µM (not active)	> 60 µM (inconclusive)	
COc1ccc2[nH]c3c(c2c1)CCN1C(=O)N([C@@H](C)C(=O)NC2CCN(Cc4ccccc4)CC2)C(=O)[C@]31C	0.122 µM (active)	> 60 µM (not active)	
O=C(O)/C(Cc1ccc([N+](=O)[O-])cc1)=N/O			AC50 ([4]; read-out: AC50): 5.01 µM (inconclusive)
COCCn1c(=O)c(-c2ccccc2)nc2cnc(OCc3ccccc3)nc21			AC50 ([4]; read-out: AC50): 20 µM (inconclusive)
CCOc1ccc(C(=O)C2=C(O)C(=O)N(CCOCCO)C2c2ccccc2OC)cc1 (configuration not stated)			AC50 ([4]; read-out: AC50): 25.1 µM (inconclusive)
COc1ccc(/C=C/C(=O)N2c3ccccc3Sc3ccc(C(F)(F)F)cc32)cc1	2.8 µM (active)	> 60 µM (not active)	
COc1cccc(CNCCc2cccc(F)c2)c1OC	0.828 µM (active)	> 60 µM (not active)	
COc1cc(C(=O)NC(=S)Nc2ccc(Cl)c(C(=O)O)c2)cc(OC)c1OC			AC50 [5]: 28.2 µM (inconclusive)
Cc1ccc2nc(N(CCN(C)C)C(=O)c3ccc4c(c3)OCCO4)sc2c1	0.104 µM (active)	> 60 µM (not active)	
Cc1ccccc1-c1ccc2ncnc(N(C)C)c2c1			AC50 [5]: 0.398 µM (inconclusive)
Cc1cc(N2C(=O)C(O)=C(C(=O)c3cccs3)C2c2cccc(O)c2)no1 (configuration not stated)			AC50 ([4]; read-out: AC50): 31.6 µM (inconclusive)
CCC1Oc2ccc(C)cc2N(CC(=O)N(Cc2cccnc2)Cc2cccc(F)c2)C1=O (configuration not stated)	0.145 µM (active)	> 60 µM (not active)	
Cn1c(=O)c2c(nc(Cc3ccccc3)n2CC(=O)O)n(C)c1=O			AC50 [4]: inconclusive
O=C(N/N=C/c1c(Nc2cccc(C(F)(F)F)c2)nc2ccccn2c1=O)c1ccccc1			AC50 [5]: 12.6 µM (inconclusive)
Cc1cccc(CNc2ncncc2-c2ccccc2C)c1			AC50 [5]: 1.26 µM (inconclusive)
